Values of other authors as cited in patent US12023334B2, “Composition including rilpivirine and method for treating tumors or cancer” (APTORUM THERAPEUTICS LIMITED, priority 2019, dated 2024).

Key:
U87 glioblastoma cells = settings: Journal of Cancer 9(1):117-128, 2018; cited from earlier work
A-375 melanoma = settings: animal experiments (Oncogene 24:3923-3931, 2005); cited from earlier work
[1] = test system: PC3 prostate cancer cell lines; settings: animal experiments (Oncogene 24:3923-3931, 2005); cited from earlier work

SMILES | tumor growth of U87 glioblastoma cells (U87 glioblastoma cells) | tumorigenic growth of A-375 melanoma (A-375 melanoma) | tumorigenic growth of PC3 prostate cancer cell lines [1]
Cc1cc(C)c(Nc2ccnc(Nc3ccc(C#N)cc3)n2)c(C)c1 [Dapivirine] | inhibit tumor growth |  | 
Cc1ccnc2c1NC(=O)c1cccnc1N2C1CC1 [nevirapine] |  | antagonize tumorigenic growth | antagonize tumorigenic growth
